Experimental data as given in ChEMBL document CHEMBL4665865, “New series of isoxazole derivatives targeting EGFR-TK: Synthesis, molecular modeling and antitumor evaluation” (Bioorg Med Chem, 2020).

Columns and labels:
HepG2 [1] = assay: Induction of cell cycle arrest in human HepG2 cells assessed as accumulation of cells at G0/G1 phase at antiproliferative IC50 by PI staining based flow cytometric analysis (reference value: 51.88%); assay type: functional
HCT-116 [2] = assay: Induction of apoptosis in human HCT-116 cells assessed as increase in caspase-3 level after 24 hrs by Western blot analysis relative to untreated control; assay type: functional
HepG2 [3] = assay: Induction of apoptosis in human HepG2 cells assessed as increase in caspase-3 level after 24 hrs by Western blot analysis relative to untreated control; assay type: functional
[4] = molecular target: T1, Casein kinase II subunit alpha (Homo sapiens, UniProt P68400); assay: Inhibition of CK2 alpha (unknown origin) at 10 uM relative to control
Target sequence in this assay (P68400 whole entry, looked up): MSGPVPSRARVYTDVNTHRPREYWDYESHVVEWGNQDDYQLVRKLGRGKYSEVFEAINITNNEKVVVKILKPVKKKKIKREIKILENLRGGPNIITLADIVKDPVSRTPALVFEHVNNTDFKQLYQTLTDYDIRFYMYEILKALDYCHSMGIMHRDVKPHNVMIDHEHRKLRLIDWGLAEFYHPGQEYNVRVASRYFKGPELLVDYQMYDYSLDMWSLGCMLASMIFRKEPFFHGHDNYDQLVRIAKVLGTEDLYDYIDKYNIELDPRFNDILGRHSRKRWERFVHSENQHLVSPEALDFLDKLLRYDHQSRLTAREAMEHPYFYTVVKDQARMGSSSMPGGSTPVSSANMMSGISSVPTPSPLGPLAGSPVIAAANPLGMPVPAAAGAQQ

[5] = molecular target: T1, Casein kinase II subunit alpha; assay: Inhibition of CK2 alpha (unknown origin) relative to control
Target sequence in this assay (P68400 whole entry): as the sequence (P68400 whole entry, looked up) above

MCF7 [6] = assay: Antitumor activity against human MCF7 cells assessed as inhibition of cell viability by MTT assay; assay type: functional, cell-based
Tubulin = assay: Inhibition of tubulin polymerization (unknown origin) relative to control; assay type: protein-complex assay, Homo sapiens
MCF7 [7] = assay: Induction of apoptosis in human MCF-7 cells assessed as increase in caspase-9 level after 24 hrs by Western blot analysis relative to untreated control; assay type: functional
WI-38 = assay: Cytotoxicity against human WI38 cells assessed as reduction in cell viability by MTT assay; assay type: cell-based
HepG2 [8] = assay: Induction of cell cycle arrest in human HepG2 cells assessed as accumulation of cells at S phase at antiproliferative IC50 by PI staining based flow cytometric analysis (reference value: 34.03%); assay type: functional
MCF7 [9] = assay: Induction of apoptosis in human MCF7 cells assessed as late apoptotic cells at antiproliferative IC50 incubated for 24 hrs by annexin V FITC and propidium iodide staining based flow cytometry (reference value: 0.28 %); assay type: functional
HepG2 [10] = assay: Induction of cell cycle arrest in human HepG2 cells assessed as accumulation of cells at G2/M phase at antiproliferative IC50 by PI staining based flow cytometric analysis (reference value: 14.09%); assay type: functional
HCT-116 [11] = assay: Antitumor activity against human HCT-116 cells assessed as inhibition of cell viability by MTT assay; assay type: functional, cell-based
HepG2 [12] = assay: Induction of apoptosis in human HepG2 cells assessed as early apoptotic cells at antiproliferative IC50 incubated for 24 hrs by annexin V FITC and propidium iodide staining based flow cytometry (reference value: 0.61 %); assay type: functional
HepG2 [13] = assay: Induction of cell cycle arrest in human HepG2 cells assessed as aggregates at antiproliferative IC50 by PI staining based flow cytometric analysis (reference value: 1.52%); assay type: functional; settings: time 24 hrs
HCT-116 [14] = assay: Induction of apoptosis in human HCT-116 cells assessed as decrease in Bcl-2 protein expression by Western blot analysis relative to untreated control; assay type: functional
HCT-116 [15] = assay: Induction of apoptosis in human HCT-116 cells assessed as late apoptotic cells at antiproliferative IC50 incubated for 24 hrs by annexin V FITC and propidium iodide staining based flow cytometry (reference value: 0.19 %); assay type: functional
HepG2 [16] = assay: Induction of apoptosis in human HepG2 cells assessed as decrease in Bcl-2 protein expression by Western blot analysis relative to untreated control; assay type: functional
[17] = molecular target: Vascular endothelial growth factor receptor 2 (Homo sapiens, UniProt P35968)
Chain of Vascular endothelial growth factor receptor 2 (P35968 whole entry): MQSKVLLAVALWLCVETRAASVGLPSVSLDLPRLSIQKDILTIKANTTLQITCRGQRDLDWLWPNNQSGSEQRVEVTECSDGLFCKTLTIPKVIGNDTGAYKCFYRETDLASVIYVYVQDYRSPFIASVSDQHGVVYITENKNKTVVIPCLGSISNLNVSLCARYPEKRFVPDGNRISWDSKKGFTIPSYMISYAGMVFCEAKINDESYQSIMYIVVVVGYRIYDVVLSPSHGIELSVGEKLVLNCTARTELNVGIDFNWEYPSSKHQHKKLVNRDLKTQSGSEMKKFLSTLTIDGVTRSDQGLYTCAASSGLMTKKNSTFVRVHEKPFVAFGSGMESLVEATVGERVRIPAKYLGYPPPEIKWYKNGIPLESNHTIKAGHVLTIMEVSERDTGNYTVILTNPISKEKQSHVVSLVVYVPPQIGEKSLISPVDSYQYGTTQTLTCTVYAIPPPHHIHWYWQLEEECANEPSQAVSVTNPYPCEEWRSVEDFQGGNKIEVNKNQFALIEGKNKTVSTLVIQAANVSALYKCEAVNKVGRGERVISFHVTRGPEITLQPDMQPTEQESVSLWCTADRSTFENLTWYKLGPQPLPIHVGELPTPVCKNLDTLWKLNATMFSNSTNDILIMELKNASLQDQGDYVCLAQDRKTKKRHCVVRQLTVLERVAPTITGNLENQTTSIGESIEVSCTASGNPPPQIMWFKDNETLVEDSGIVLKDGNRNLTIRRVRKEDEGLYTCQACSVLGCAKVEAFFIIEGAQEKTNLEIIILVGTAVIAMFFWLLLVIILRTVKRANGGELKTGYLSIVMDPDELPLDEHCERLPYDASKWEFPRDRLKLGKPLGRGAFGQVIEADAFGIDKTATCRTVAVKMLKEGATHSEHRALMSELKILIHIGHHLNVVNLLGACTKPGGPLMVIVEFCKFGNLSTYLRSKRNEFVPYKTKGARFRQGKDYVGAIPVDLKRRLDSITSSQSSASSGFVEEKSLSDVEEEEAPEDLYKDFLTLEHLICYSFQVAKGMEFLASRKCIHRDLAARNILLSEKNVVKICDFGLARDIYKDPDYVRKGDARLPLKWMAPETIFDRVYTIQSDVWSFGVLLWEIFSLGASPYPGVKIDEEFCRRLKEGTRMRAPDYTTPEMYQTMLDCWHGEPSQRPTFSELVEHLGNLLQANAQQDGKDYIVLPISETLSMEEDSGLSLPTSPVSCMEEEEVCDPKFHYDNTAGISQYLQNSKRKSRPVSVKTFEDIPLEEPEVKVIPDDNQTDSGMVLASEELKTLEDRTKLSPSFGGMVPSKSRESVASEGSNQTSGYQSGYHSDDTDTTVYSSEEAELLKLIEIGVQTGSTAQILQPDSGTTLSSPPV
Description: Inhibition of VEGFR-2 (unknown origin) relative to control

HCT-116 [18] = assay: Induction of cell cycle arrest in human HCT-116 cells assessed as accumulation of cells at Pre-G1 phase at antiproliferative IC50 by PI staining based flow cytometric analysis (reference value: 1.19%); assay type: functional
[19] = molecular target: Epidermal growth factor receptor (Homo sapiens, UniProt P00533); assay: Inhibition of EGFR-TK (unknown origin) relative to control
Chain of Epidermal growth factor receptor (P00533 whole entry): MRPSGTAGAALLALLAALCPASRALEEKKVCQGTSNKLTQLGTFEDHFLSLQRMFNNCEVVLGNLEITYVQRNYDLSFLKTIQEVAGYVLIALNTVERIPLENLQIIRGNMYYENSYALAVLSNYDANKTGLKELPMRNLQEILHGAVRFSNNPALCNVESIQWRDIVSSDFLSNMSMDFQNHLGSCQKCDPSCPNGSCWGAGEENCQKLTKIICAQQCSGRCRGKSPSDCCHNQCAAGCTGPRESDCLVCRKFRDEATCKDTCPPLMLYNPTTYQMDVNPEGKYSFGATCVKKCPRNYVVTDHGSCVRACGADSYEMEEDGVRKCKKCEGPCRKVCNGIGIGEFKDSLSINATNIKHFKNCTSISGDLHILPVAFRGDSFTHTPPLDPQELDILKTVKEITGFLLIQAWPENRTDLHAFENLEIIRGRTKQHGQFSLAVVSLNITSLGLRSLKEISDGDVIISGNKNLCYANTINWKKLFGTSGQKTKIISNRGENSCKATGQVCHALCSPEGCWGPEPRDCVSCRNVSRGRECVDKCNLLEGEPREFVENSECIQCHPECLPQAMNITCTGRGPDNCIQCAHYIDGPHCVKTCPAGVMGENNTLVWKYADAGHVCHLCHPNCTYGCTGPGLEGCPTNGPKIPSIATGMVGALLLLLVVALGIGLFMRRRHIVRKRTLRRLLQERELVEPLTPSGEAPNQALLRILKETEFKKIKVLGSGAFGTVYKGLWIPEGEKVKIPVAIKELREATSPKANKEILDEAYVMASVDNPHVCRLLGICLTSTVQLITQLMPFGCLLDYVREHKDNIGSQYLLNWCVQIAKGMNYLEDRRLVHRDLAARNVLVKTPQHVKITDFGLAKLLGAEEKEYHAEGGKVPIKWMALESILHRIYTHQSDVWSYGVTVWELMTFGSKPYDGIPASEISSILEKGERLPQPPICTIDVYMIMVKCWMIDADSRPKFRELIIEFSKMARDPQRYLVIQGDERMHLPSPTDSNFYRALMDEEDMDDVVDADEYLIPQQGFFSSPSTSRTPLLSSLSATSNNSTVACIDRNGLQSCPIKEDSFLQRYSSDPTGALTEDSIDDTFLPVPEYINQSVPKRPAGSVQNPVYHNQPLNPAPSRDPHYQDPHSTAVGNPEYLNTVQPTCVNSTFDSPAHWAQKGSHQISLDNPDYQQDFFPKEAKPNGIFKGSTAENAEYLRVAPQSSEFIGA

WISH = assay: Cytotoxicity against human WISH cells assessed as reduction in cell viability by MTT assay; assay type: cell-based
HepG2 [20] = assay: Induction of cell cycle arrest in human HepG2 cells assessed as accumulation of cells at Pre-G1 phase at antiproliferative IC50 by PI staining based flow cytometric analysis (reference value: 1.44%); assay type: functional
MCF7 [21] = assay: Induction of cell cycle arrest in human MCF7 cells assessed as aggregates at antiproliferative IC50 by PI staining based flow cytometric analysis (reference value: 2.11%); assay type: functional; settings: time 24 hrs
HCT-116 [22] = assay: Induction of apoptosis in human HCT-116 cells assessed as necrotic cells at antiproliferative IC50 incubated for 24 hrs by annexin V FITC and propidium iodide staining based flow cytometry (reference value: 0.59 %); assay type: functional
MCF7 [23] = assay: Induction of cell cycle arrest in human MCF7 cells assessed as accumulation of cells at S phase at antiproliferative IC50 by PI staining based flow cytometric analysis (reference value: 32.91%); assay type: functional
MCF7 [24] = assay: Induction of apoptosis in human MCF-7 cells assessed as increase in Bax protein expression by Western blot analysis relative to untreated control; assay type: functional
MCF7 [25] = assay: Induction of apoptosis in human MCF7 cells assessed as early apoptotic cells at antiproliferative IC50 incubated for 24 hrs by annexin V FITC and propidium iodide staining based flow cytometry (reference value: 0.39 %); assay type: functional
MCF7 [26] = assay: Induction of cell cycle arrest in human MCF7 cells assessed as accumulation of cells at G0/G1 phase at antiproliferative IC50 by PI staining based flow cytometric analysis (reference value: 56.14%); assay type: functional
MCF7 [27] = assay: Induction of cell cycle arrest in human MCF7 cells assessed as accumulation of cells at Pre-G1 phase at antiproliferative IC50 by PI staining based flow cytometric analysis (reference value: 1.78%); assay type: functional
DNA topoisomerase 2-beta = DNA topoisomerase 2-beta (Homo sapiens, UniProt Q02880); assay: Inhibition of Topoisomerase II beta (unknown origin) relative to control
Chain of DNA topoisomerase 2-beta (Q02880 whole entry): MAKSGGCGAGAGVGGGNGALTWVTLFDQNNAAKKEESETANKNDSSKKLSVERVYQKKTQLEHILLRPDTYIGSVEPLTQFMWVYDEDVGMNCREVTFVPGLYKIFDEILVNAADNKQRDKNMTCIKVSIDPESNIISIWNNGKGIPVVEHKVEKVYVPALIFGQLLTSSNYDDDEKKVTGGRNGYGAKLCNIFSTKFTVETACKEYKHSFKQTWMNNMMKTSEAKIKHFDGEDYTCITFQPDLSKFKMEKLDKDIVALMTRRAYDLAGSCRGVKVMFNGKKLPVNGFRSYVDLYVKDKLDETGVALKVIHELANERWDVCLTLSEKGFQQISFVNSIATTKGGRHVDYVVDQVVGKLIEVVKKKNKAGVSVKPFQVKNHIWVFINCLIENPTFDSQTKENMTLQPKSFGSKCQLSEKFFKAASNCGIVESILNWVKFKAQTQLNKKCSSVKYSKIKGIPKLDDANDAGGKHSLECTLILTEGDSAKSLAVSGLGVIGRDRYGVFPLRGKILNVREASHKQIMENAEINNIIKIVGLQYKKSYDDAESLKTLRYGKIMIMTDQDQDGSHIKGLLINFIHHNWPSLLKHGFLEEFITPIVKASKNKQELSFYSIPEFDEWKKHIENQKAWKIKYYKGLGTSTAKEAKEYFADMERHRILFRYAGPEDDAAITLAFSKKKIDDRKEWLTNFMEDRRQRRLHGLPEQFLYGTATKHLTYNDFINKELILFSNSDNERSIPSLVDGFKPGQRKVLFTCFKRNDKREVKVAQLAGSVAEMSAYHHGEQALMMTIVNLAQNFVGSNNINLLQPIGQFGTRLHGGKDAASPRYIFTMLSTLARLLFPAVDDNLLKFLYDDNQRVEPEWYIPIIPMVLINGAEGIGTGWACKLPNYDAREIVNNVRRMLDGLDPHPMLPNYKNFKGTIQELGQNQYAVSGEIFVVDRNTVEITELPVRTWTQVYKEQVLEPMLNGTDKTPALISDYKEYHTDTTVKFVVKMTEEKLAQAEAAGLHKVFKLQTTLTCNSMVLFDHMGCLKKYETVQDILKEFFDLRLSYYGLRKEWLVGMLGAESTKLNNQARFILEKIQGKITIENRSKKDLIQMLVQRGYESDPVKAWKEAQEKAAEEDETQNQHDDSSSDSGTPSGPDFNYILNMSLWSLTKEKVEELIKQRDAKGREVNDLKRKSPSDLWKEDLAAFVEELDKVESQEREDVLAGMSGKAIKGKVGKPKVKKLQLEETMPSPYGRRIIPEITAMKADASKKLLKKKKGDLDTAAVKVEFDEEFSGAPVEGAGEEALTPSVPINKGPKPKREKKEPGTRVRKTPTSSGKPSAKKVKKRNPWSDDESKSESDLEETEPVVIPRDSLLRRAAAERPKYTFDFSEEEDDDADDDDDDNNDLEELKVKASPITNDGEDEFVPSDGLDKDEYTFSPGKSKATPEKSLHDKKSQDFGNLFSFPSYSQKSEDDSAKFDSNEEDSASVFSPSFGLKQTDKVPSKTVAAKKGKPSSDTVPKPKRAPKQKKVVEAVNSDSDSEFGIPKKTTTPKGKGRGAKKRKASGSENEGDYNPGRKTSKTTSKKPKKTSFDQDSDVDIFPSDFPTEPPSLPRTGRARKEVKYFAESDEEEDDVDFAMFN

MCF7 [28] = assay: Induction of cell cycle arrest in human MCF7 cells assessed as cell debris at antiproliferative IC50 by PI staining based flow cytometric analysis (reference value: 1.63%); assay type: functional; settings: time 24 hrs
HCT-116 [29] = assay: Induction of cell cycle arrest in human HCT-116 cells assessed as cell debris at antiproliferative IC50 by PI staining based flow cytometric analysis (reference value: 1.42%); assay type: functional; settings: time 24 hrs
HCT-116 [30] = assay: Induction of apoptosis in human HCT-116 cells assessed as early apoptotic cells at antiproliferative IC50 incubated for 24 hrs by annexin V FITC and propidium iodide staining based flow cytometry (reference value: 0.41 %); assay type: functional
MCF7 [31] = assay: Induction of apoptosis in human MCF-7 cells assessed as decrease in Bcl-2 protein expression by Western blot analysis relative to untreated control; assay type: functional
HepG2 [32] = assay: Induction of cell cycle arrest in human HepG2 cells assessed as cell debris at antiproliferative IC50 by PI staining based flow cytometric analysis (reference value: 1.52%); assay type: functional; settings: time 24 hrs
HCT-116 [33] = assay: Induction of apoptosis in human HCT-116 cells assessed as increase in Bax protein expression by Western blot analysis relative to untreated control; assay type: functional
MCF7 [34] = assay: Induction of apoptosis in human MCF7 cells assessed as necrotic cells at antiproliferative IC50 incubated for 24 hrs by annexin V FITC and propidium iodide staining based flow cytometry (reference value: 1.11 %); assay type: functional
HepG2 [35] = assay: Induction of apoptosis in human HepG2 cells assessed as increase in Bax protein expression by Western blot analysis relative to untreated control; assay type: functional

`Cc1cc(NC2=NC(=O)/C(=C\c3c4ccccc4cc4ccccc34)S2)no1` was tested, and the Activity (HepG2 [1]) was 38.11%, the “fold change (FC)” value (HCT-116 [2]) was 14.2 and the “fold change (FC)” value (HepG2 [3]) was 5.4. The inhibition [4] was 76.3%, the IC50 [5] was 0.171 µM and the IC50 (MCF7 [6]) was 6.38 µM. For the same molecule, the IC50 (Tubulin) was 3.61 µM, the “fold change (FC)” value (MCF7 [7]) was 4.7 and the IC50 (WI-38) was 38.6 µM. It also gave an Activity (HepG2 [8]) of 24.96%, an Activity (MCF7 [9]) of 7.82% and an Activity (HepG2 [10]) of 36.93%. It also gave an IC50 (HCT-116 [11]) of 7.72 µM, an Activity (HepG2 [12]) of 3.51% and an Activity (HepG2 [13]) of 1.55%. The “fold change (FC)” value (HCT-116 [14]) was 0.64, the Activity (HCT-116 [15]) was 15.19% and the “fold change (FC)” value (HepG2 [16]) was 0.56. It also gave an IC50 [17] of 0.087 µM, an Activity (HCT-116 [18]) of 22.69% and an IC50 [19] of 0.054 µM. It also gave an IC50 (WISH) of 53.2 µM, an Activity (HepG2 [20]) of 13.3% and an Activity (MCF7 [21]) of 2.11%. The Activity (HCT-116 [22]) was 2.27%, the Activity (MCF7 [23]) was 26.41% and the “fold change (FC)” value (MCF7 [24]) was 7. For the same molecule, the Activity (MCF7 [25]) was 6.28%, the Activity (MCF7 [26]) was 44.25% and the Activity (MCF7 [27]) was 16.41%. It also gave an IC50 (DNA topoisomerase 2-beta) of 0.13 µM, an Activity (MCF7 [28]) of 2.08% and an Activity (HCT-116 [29]) of 1.92%. For the same molecule, the Activity (HCT-116 [30]) was 5.23%, the “fold change (FC)” value (MCF7 [31]) was 0.62 and the Activity (HepG2 [32]) was 2.18%. For the same molecule, the “fold change (FC)” value (HCT-116 [33]) was 6.9, the Activity (MCF7 [34]) was 2.31% and the “fold change (FC)” value (HepG2 [35]) was 4.1.
